Experimental data as given in patent US20230303623A1, “PEPTIDES AND METHODS OF USE” (REALTA LIFE SCIENCES, INC., priority 2020, published 2023).
Entries after “also recorded” stand apart in the source; their conditions may differ.

Legend:
VEGF [1] = biological target: T1, VEGF (Homo sapiens, UniProt P15692); assay: VEGF binding ELISA plate-based assay; details: peptides 1 mg/ml
T1 construct: Promega (bioassay)
T1 sequence (P15692 27-191 isoform P15692-4): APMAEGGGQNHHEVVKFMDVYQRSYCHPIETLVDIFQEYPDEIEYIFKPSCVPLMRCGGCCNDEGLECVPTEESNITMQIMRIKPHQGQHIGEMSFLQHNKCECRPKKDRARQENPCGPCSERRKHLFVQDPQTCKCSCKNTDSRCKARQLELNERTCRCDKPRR
Method: A fixed amount of PIC1 peptides (1 mg/ml) were added to the plates followed by a rabbit polyclonal antibody that recognizes the peptides and then a secondary anti-rabbit antibody conjugated with HRP. The plate was then developed by addition of TMB as the substrate for the colorimetric assay.
(§1) Angiogenesis, or the formation of new blood vessels from the established vasculature, is an essential element in tumor growth and metastasis formation. Inhibiting tumor angiogenesis is considered a major therapeutic strategy in oncology. […] The bioluminescent signal is detected in a luminometer.

VEGF [2] = biological target: T1, VEGF; assay: VEGF Bioassay (Promega), VEGF signaling via VEGFR-2 (KDR); assay type: cell-based
Source text: Luminescence was detected in luminometer plate reader.
as §1

HUVECs = assay: LPS-induced non-VEGF mediated angiogenesis (tube formation) in HUVECs; assay type: cell-based, human; details: peptides 10 mg/ml; LPS 10 ug/ml; overnight
Method: HUVEC cells were incubated with either RLS-0122, RLS-0150, RLS-0154, RLS-0164 and RLS-0168 followed by LPS addition and plating onto extracellular matrix. After overnight incubation, evidence of angiogenesis was determined by fluorescence microscopy. Cells receiving LPS and not receiving LPS served as positive and negative controls for angiogenesis.
Currently there are no drugs on the market to inhibit non-VEGF mediated angiogenesis. To assess whether the PIC1 peptides could inhibit non-VEGF mediated angiogenesis, the inventors developed a model of angiogenesis using human umbilical endothelial vein cells (HUVECs) in which addition of lipopolysaccharide (LPS) induces angiogenesis. HUVECs were first incubated with Cell Trace Violet dye, followed by addition of PIC1 peptides (10 mg/ml) for 1 hour at 37° C. and then treated with 10 ug/ml of LPS and placement on an extracellular matrix to promote angiogenesis. Cells were incubated overnight at 37° C. in a humidified CO2 incubator. Cells were then visualized for tube formation indicative of angiogenesis by fluorescence microscopy.

[3] = Total Antioxidant Capacity (TAC) assay; details: highest peptide concentration 1.5 mM; compared to parent peptide
Method: As previously reported, the TAC (Total Antioxidant Capacity) Assay (Cell Biolabs, Inc, San Diego, CA) was used to measure the antioxidant capacity of the PIC1 variants based on the reduction of copper (II) to copper (I). The kit protocol was performed per the manufacturer's recommendations.
The antioxidant properties for the PIC1 variants were evaluated in a Total Antioxidant Capacity (TAC) assay, as previously reported. Total antioxidant activity over a range of peptide concentrations were determined for the stapled and the D-amino acid peptides based on the PA-I8Sar and PA-C9Sar backbones (FIG. 4A-4B), with the activity of the highest peptide concentration reported (1.5 mM) (FIG. 5A-5C).

[4] = tested on: purified human Pan T-cells; assay: T-cell exhaustion protocol (repeated CD3/CD28 Dynabead stimulation); assay type: cell-based; details: ELISA; for Caspase 3/7 levels, in words: peptides 2 mg/ml at each stimulation, day 8; for IFN-gamma levels in cell supernatants, in words / IL-2 levels in cell supernatants, in words: peptides 2 mg/ml, stimulation 2
Method: Purified human pan-T-cells were subject to stimulation with Dynabeads every 48 hours over the period of 8 days with cells also receiving PIC1 peptides (2 mg/ml) at each stimulation. Cells not receiving Dynabeads were run in parallel to assess background levels of Caspase 3/7 signal. At the eighth day, cells were harvested, and the levels of Caspase 3/7 determined by ELISA.
Purified human pan-T-cells were subject to stimulation with Dynabeads every 48 hours over the period of 8 days with cells also receiving PIC1 peptides (2 mg/ml) at each stimulation. Cell supernatants were collected at each stimulation and levels of IL-2 and IFN-gamma assayed by ELISA.
T-cell exhaustion is a form of T-cell dysfunction that occurs in cancer. It is generally defined by poor effector function, reduction in cytokine release (e.g., IL-2, TNF-alpha, IFN-gamma), sustained expression of inhibitory receptors (e.g., PD-1, LAG-3, CD244, CD160) with the progressive loss of effector function due to overstimulation. Exhaustion can prevent optimal control of tumor growth. Exhausted T cells are prevalent in the tumor microenvironment (TME) and can lead to T-cell apoptosis. T-cell exhaustion is reversible and pharmaceutical inhibition of T-cell exhaustion has been considered a promising strategy by many cancer researchers. To ascertain if PIC1 peptides could reverse T-cell exhaustion and increase T cell viability and effector function, a T-cell exhaustion protocol was developed. To induce T-cell exhaustion, purified human Pan T-cells were stimulated with T-Activator CD3/CD28 Dynabeads and cells were washed and re-stimulated every 48 hours. PIC1 peptides were added to the cells after each stimulation with Dynabeads. After three to four stimulations, cells were harvested for readouts which consisted of assessing T-cell apoptosis by measuring Caspase 3/7 levels and production of cytokines IL-2 and IFN-gamma, which are indicative of T-cell functionality. […] To further evaluate if PIC1 peptides could restore T-cell functionality in cells that have undergone the exhaustion protocol, the inventors next assessed production of cytokines IL-2 and IFN-gamma. Supernatants from the cells after each stimulation was collected and the cytokines measured by ELISA. […] The lower level of IFN-gamma signal was consistently seen in this assay.

CTLA-4 = biological target: T2, CTLA-4 (Homo sapiens, UniProt P16410); assay: CTLA-4 Blockade Bioassay (Promega); assay type: cell-based; design: host or cells: Jurkat T cells (CTLA-4 effector cells) co-cultured with aAPC/Raji cells; details: increasing concentrations
T2 sequence (P16410 36-223): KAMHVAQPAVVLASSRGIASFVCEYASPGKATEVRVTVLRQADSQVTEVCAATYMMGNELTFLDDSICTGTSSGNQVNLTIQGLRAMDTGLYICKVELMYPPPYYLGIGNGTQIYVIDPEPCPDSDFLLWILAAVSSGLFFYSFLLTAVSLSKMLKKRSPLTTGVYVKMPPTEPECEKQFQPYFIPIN
Method: CTLA-4 effector cells were incubated with aAPC/Raji Cells in the absence or presence of increasing concentrations of anti-CTLA-4 antibody (positive control), RLS-0122, RLS-0150, RLS-0154, RLS-0164 and RLS-0168 and RLS-0088 (negative control). Luminescence was detected in luminometer plate reader. The drop-off in signal with the test peptides at high concentrations is due to cell death as a result of peptide buffer effects on the cells.
To assess if PIC1 peptides could block CTLA-4 inhibitory activity in a cell-based assay, select peptides were screened in the CTLA-4 Blockade Bioassay (Promega). This bioluminescent cell-based assay can be used to measure the potency and stability of molecules targeting CTLA-4 and consists of two genetically engineered cell lines: CTLA-4 effector cells: Jurkat T cells expressing human CTLA-4 and a luciferase reporter driven by a native promoter which responds to TCR/CD28 activation and aAPC/Raji Cells: Raji cells expressing an engineered cell surface protein designed to activate cognate TCRs in an antigen-independent manner and endogenously expressing CTLA-4 ligands CD80 and CD86. When the two cell types are co-cultured, CTLA-4 competes with CD28 for their shared ligands, CD80 and CD86 and thus inhibits CD28 pathway activation and promoter-mediated luminescence. Addition of a molecule that blocks the interaction of CTLA-4 with its ligands CD80 and CD86 results in promoter-mediated luminescence.

[5] = without PEGylation; as described in U.S. Pat. No. 10,005,818; cited from earlier work
PD-1 binding to PD-L1 = biological target: T3, PD-1 binding to PD-L1 (Homo sapiens, UniProt Q9NZQ7); assay: PD-1:PD-L1 inhibitor screening ELISA; details: FIG. 8
T3 construct: purchased
T3 sequence (Q9NZQ7 19-238 limits assumed): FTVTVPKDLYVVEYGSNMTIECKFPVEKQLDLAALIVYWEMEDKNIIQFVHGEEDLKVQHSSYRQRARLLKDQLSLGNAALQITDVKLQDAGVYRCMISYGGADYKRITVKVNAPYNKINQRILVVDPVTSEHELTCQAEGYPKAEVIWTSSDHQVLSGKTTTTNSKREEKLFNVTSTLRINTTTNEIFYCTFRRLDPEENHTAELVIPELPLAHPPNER
Method: PIC1 peptides were allowed to bind to immobilized PD-L1 on the surface of the plate. Biotinylated PD-1 was then added and bound PD-1 detected by streptavidin-HRP reagent followed by TMB as the substrate for the colorimetric assay.
This inhibitor screening ELISA pair was designed to facilitate the identification and characterization of new PD-1 pathway inhibitors. In this assay, biotinylated human PD-1 was bound to immobilized human PD-L1 and a colorimetric sandwich ELISA platform was used. Plates were coated with human PD-L1 followed by incubation with various PIC1 peptides. Human PD-1-Biotin was then allowed to bind the coated human PD-L1 followed by addition of streptavidin-HRP. TMB was then added as the colorimetric HRP substrate and the wells of the plate analyzed in a plate reader at an absorbance of 450 nm.
The immune checkpoint pathway is an area of significant interest in cancer research. PD-1 is one of the best characterized checkpoint proteins. The binding between PD-1 and its ligand PD-L1 suppresses T-cell activation and allows cancer cells to escape from body's immune surveillance. Therefore, the pharmaceutical inhibition of PD-1 or its ligand has been considered a promising strategy by many cancer researchers. To ascertain if these PIC1 derivatives could inhibit PD-1 interaction with PD-L1, a commercial ELISA kit was utilized. […]

Row | Substance | binding to VEGF, in words (VEGF [1]) | inhibition of VEGF signaling via VEGFR-2 (luminescence), in words (VEGF [2]) | tube formation / angiogenesis inhibition, in words (HUVECs) | total antioxidant capacity, in words [3] | Caspase 3/7 levels, in words ([4]; listed as RLS-0164) | IFN-gamma levels in cell supernatants, in words ([4]; listed as RLS-0164) | IL-2 levels in cell supernatants, in words ([4]; listed as RLS-0164) | inhibition of CTLA-4 mediated cell signaling (increase in luminescence), in words (CTLA-4; listed as RLS-0164) | Caspase 3/7 levels, in words ([4]; listed as RLS-0168) | IFN-gamma levels in cell supernatants, in words ([4]; listed as RLS-0168) | IL-2 levels in cell supernatants, in words ([4]; listed as RLS-0168) | inhibition of CTLA-4 mediated cell signaling (increase in luminescence), in words (CTLA-4; listed as RLS-0168) | solubility in water [5] | inhibition of binding of PD-1 to PD-L1, in words (PD-1 binding to PD-L1) | inhibition of CTLA-4 mediated cell signaling (increase in luminescence), in words (CTLA-4)
1 | IALILEPI(Sar)dCQERAA (IALILEPIXCQERAA; D-Cys; sarcosine; MOD_RES (9)..(9) Sarcosine; MOD_RES (10)..(10) D-amino acid) [PA-0164] | binding with high affinity | did not inhibit signaling | no detectable tube formation | enhanced activity | decreased levels; also recorded: reduced levels | showed IL-2 and IFN-gamma signal at stimulation 2; also recorded: increased levels | showed IL-2 and IFN-gamma signal at stimulation 2; also recorded: increased levels | showed inhibitory activity; also recorded: able to inhibit CTLA-4 mediated cell signaling |  |  |  |  |  |  | 
2 | IALILEPI(Sar)CQERdAA (IALILEPIXCQERAA; D-Ala; sarcosine; MOD_RES (9)..(9) Sarcosine; MOD_RES (14)..(14) D-amino acid) [PA-0168] |  | did not inhibit signaling | no detectable tube formation |  |  |  |  |  | very low to undetectable levels; also recorded: reduced levels | detectable at stimulation 2; also recorded: increased levels | detectable IL-2 at stimulation 2; also recorded: increased levels | showed inhibitory activity; also recorded: able to inhibit CTLA-4 mediated cell signaling |  |  | 
3 | IALILEP(Sar)CCQERAA (IALILEPXCCQERAA; sarcosine at position 8; MOD_RES (8)..(8) Sarcosine) [PA-0088, parent peptide, sarcosine at position 8 of PIC1] |  |  |  |  |  |  |  |  |  |  |  |  | water soluble without PEGylation | did not inhibit | no inhibitory over background
